From patent US10336707B2, “Heterocyclic derivatives modulating activity of certain protein kinases” (EUDENDRON S.R.L., priority 2014, dated 2019)

What was measured:
[1] = tested on: NPM/ALK positive SUPM2; experiment: Tritiated thymidine uptake cell proliferation assay, SUPM2; format: cell-based; settings: SUP-M2; cell line SUPM2; read-out: IC50 of cellular proliferation, SUPM2
Description: Method: Tritiated Thymidine Uptake Cell Proliferation Assay
The following procedure was used with parent untransformed BaF3 cells, BaF3 cells transformed with the oncogenic fusion protein NPM/ALK, NPM/ALK positive SUDHL-1 cells, NPM/ALK positive SUPM2, ALK-negative HL60 cells, NPM/ALK positive KARPAS-299 cells. The parent untransformed BaF3 cells or Alk-negative HL60 cells are used as controls. Cells were seeded in U-bottomed 96-well plates at 10000 cells/well in a volume of 100 μl in supplemented medium. In the case of the parent untransformed BaF3 cells, the medium was supplemented with IL-3. Serial dilutions of inhibitors were added to the appropriate wells and volumes adjusted to 200 μl. Controls were treated with the equivalent volume of vehicle, DMSO, alone. Plates were incubated at 37° C. for 72 h. 3[H]-thymidine (1 μCi/well) was added for the last 16 h of incubation. Cells were harvested on to paper filters and 3[H]-thymidine incorporation was measured using a scintillation counter (1430 MicroBeta, Wallac, Turku, Finland). The 50% inhibitory concentration (IC50) was defined as the concentration of inhibitor, expressed in nanomolar units, that gave a 50% decrease in 3[H]-thymidine uptake compared with controls.
In Table 4 are reported the IC50 of cellular proliferation assays of example 3 versus ALK positive, mutated and negative cell lines.

[2] = target: T1, ALKL1196M (GST-His-tag) (Homo sapiens, UniProt Q9UM73, L1196M); experiment: Radiometric protein kinase assay (33PanQuinase Activity Assay), ALK L1196M; format: biochemical; settings: ATP 0.3 μM
T1 construct: either as full-length or enzymatically active fragments; purchased ProQinase GmbH (Freiburg, Germany)
Description: A proprietary radiometric protein kinase assay (33PanQuinase® Activity Assay) developed by ProQuinase GmbH (Freiburg, Germany) was used for measuring the kinase activity of selected protein kinases. All assays were performed in FlashPlates™ wells 96 Perkin Elmer (Boston, Mass., USA) in a reaction volume of 50 μl. The reaction mixture was obtained in 4 steps in the following order: • 1. 10 μl of a solution of non-radioactive ATP in water; • 2. 25 μl of assay buffer/[γ-^33P]-ATP mixture • 3. 5 μl of test sample in 10% DMSO • 4. 10 μl of enzyme/substrate mixture
All protein kinases provided by ProQinase were expressed in Sf9 insect cells or in E. coli as recombinant GST-fusion proteins or His-tagged proteins, either as full-length or enzymatically active fragments. […] Kinases from external vendors (CAR=Carna Biosciences Inc.; INV=Life Technologies (Invitrogen Corporation); MIL=Merck-Millipore (Millipore Corporation), were expressed, purified and quality-controlled by virtue of the vendors readings.
A stock solution of compound of formula (I) was diluted to 5×10-04M/100% DMSO. […] Incorporation of 33Pi (counting of “cpm”) was determined with a microplate scintillation counter (Microbeta, Wallac). […]
Based on each 10 corresponding residual activities, IC50 values were calculated using Prism 5.04 for Windows (Graphpad, San Diego, Calif.). […]

T1 sequence (Q9UM73 19-1620 L1196M): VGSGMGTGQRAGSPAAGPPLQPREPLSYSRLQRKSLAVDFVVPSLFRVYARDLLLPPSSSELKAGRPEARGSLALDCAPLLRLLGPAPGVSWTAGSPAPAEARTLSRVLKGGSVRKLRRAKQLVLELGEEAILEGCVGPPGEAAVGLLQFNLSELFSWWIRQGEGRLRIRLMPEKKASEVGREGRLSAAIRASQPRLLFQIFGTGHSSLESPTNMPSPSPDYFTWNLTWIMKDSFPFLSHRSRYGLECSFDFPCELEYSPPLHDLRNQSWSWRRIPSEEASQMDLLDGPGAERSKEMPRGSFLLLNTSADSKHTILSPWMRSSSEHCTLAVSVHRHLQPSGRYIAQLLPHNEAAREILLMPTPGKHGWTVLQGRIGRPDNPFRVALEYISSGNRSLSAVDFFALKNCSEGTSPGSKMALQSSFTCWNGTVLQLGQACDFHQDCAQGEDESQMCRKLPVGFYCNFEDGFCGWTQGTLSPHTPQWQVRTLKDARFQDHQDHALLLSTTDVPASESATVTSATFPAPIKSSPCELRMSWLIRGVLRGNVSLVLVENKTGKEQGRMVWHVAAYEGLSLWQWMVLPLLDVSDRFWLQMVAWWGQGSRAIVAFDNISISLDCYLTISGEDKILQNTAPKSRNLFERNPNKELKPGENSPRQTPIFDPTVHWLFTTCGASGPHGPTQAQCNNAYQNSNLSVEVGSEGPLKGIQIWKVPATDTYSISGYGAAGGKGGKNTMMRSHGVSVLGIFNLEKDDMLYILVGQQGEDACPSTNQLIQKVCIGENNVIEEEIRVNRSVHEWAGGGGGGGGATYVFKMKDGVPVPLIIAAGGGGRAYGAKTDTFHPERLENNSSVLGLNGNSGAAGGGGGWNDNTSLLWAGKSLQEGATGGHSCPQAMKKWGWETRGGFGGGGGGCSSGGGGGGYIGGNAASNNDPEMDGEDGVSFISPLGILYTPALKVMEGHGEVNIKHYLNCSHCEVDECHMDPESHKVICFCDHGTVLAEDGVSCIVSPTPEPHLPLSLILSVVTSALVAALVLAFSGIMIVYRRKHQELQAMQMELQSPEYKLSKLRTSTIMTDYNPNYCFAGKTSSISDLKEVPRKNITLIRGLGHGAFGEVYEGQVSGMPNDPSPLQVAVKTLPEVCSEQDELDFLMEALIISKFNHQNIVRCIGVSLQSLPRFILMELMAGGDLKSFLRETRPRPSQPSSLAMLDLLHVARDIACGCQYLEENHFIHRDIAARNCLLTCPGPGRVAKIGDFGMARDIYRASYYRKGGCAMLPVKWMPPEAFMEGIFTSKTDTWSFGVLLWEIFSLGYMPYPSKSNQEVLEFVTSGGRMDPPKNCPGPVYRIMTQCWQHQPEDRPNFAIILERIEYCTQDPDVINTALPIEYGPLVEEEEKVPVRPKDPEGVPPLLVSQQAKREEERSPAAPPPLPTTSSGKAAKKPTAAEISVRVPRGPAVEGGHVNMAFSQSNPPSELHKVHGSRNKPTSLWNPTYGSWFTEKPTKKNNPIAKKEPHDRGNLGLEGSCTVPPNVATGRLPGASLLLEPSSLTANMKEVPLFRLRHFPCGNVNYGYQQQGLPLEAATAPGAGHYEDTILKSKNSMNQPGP

CN1CCN(c2ccc(C(=O)Nc3n[nH]c4cc(-c5ccc(O)cc5)c(Cc5cc(F)cc(F)c5)cc34)c(NC3CCOCC3)c2)CC1 [Example 3, N-[5-[(3,5-difluorophenyl)methyl]-6-(4-hydroxyphenyl)-1H-indazol-3-yl]-4-(4-methylpiperazin-1-yl)-2-(tetrahydropyran-4-ylamino)benzamide]
IC50 [1]: 52 nM | IC50 [2]: 45 nM
